Measurements: publication PMC8365602 (Journal of Medicinal Chemistry, 2021)
Like-named read-outs stand apart in the source and are kept apart here.

What was measured:
[1] = system: reconstructed human epidermis (RHE); assay: Experimental atopic dermatitis in reconstructed human epidermis (RHE); format: cell-based; settings: 1 μM, control
Description: Compound 27a was evaluated in an inflammatory model of RHE by Synelvia S.A.S. (Labège, France) according to the company’s protocol.[88] In brief, primary human keratinocytes were used to generate RHE on polycarbonate filters as described.[88] RHE was allowed to acclimate for 6 days (5% CO2, 37 °C) prior to incubation with 27a (5, 10, 25 μM), dexamethasone (1 μM), or vehicle (0.05% DMSO), and a proinflammatory cytokine cocktail for 4 days at 5% CO2 and 37 °C. The culture medium including compounds and cytokines was changed on days 6, 8, and 10. Each culture condition was repeated three times. Acute cytotoxicity of 27a was excluded at the concentrations studied within 24 h by measuring the mitochondrial dehydrogenase activity (MTT assay).
Morphological changes (i.e., spongiosis and the formation of keratohyalin granules) were evaluated for sections of paraffin-embedded RHEs after hematoxylin-eosin staining.[89] The permeability of the skin barrier was estimated from the transepidermal water loss at the RHE surface.[90] The surface pH was determined with a pH electrode as reported.[89] The permeability of the stratum corneum was addressed by applying Lucifer yellow onto the RHE surface and inspecting the penetration by fluorescence microscopy.[88] TSLP and IL-8 levels were analyzed by ELISA (according to the specifications of Synelvia S.A.S.) in the culture medium on day 2 and day 4 after addition of cytokines, respectively.

5-LOX [2] = target: T1, 5-LOX (Homo sapiens, UniProt P09917); assay: 5-LOX product formation in activated PMNL; settings: PMNL, read-out: 5-LOX PMNL residual activity at 3 µM (Table S1);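 note: freshly isolated human PMNL in PBS pH 7.4 plus glucose, preincubated 10 min at 37 °C with compound, 5-LOX products (all-trans LTB4 isomers, 5-HETE) quantified by RP-HPLC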
T1 sequence (P09917 1-674): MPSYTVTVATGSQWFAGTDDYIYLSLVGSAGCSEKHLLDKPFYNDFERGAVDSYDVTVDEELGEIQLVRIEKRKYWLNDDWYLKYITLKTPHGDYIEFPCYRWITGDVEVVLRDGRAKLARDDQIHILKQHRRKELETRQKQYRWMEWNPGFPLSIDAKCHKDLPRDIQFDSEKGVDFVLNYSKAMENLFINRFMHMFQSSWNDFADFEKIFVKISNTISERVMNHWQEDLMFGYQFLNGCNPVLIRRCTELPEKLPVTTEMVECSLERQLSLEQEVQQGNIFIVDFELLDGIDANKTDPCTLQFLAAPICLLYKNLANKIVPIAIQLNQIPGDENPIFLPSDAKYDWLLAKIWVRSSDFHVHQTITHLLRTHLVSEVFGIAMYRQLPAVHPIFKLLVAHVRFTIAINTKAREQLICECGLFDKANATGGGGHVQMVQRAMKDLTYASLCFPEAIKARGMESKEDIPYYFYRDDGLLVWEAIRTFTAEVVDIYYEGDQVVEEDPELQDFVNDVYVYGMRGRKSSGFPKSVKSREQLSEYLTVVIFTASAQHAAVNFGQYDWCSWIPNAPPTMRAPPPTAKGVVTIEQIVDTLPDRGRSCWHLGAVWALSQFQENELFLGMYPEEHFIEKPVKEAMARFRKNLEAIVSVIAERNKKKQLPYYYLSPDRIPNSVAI
Description: These volunteers regularly donated blood (every 8–12 weeks) and were physically inspected by a clinician.
Erythrocytes were removed by dextran sedimentation and hypotonic lysis. PMNL were obtained from the cell pellet and platelets from the supernatant.
Freshly isolated PMNL (5 × 10^6) suspended in PBS pH 7.4 with 1 mg/mL glucose or freshly withdrawn human whole blood were preincubated with the test compounds for 10 min (or as indicated) at 37 °C. […] The reaction was stopped with an equal volume of methanol.

5-LOX [3] = target: T1, 5-LOX; settings: supplementary csv; # published in ref Pein et al.4; read-out: IC50 (5-LOX PMNL); cited from earlier work
5-LOX [4] = target: T1, 5-LOX; set-up: made in house; host or cells: E. coli Bl21 (DE3); settings: supplementary csv; # published in ref Pein et al.4; read-out: IC50 (5-LOX enzyme); cited from earlier work
5-LOX [5] = target: T1, 5-LOX; assay: Cell-free 5-LOX activity (isolated human recombinant enzyme); settings: read-out: 5-LOX enzyme residual activity at 1 µM (Table S1)
[6] = Radical scavenging activity (DPPH); settings: 25 μM, positive control
Description: Compound 27a was incubated with 2,2-diphenyl-1-picrylhydrazyl (DPPH, Sigma-Aldrich; 50 mM) in ethanol for 30 min, and the absorbance was measured at 520 nm using a Multiskan Spectrum Microplate Reader (Thermo Fisher Scientific).[72] The positive control ascorbic acid (Sigma-Aldrich; 25 μM) scavenged DPPH radicals by 36 ± 11%.

[7] = system: zymosan-induced murine peritonitis; assay: Zymosan-induced peritonitis in mice; format: in vivo; settings: 3 mg/kg p.o., 30 min post zymosan
Description: Male CD-1 mice (33–39 g, 6–8 weeks, Charles River Laboratories; Calco, Italy) and female BALB/c mice (20 g, 8 weeks, Charles River Laboratories) were fed with standard rodent chow and water and acclimated for 4 days at a 12 h light and 12 h dark schedule in a constant air-conditioned environment (21 ± 2 °C). Mice were randomly assigned to groups, and experiments were carried out during the light phase.
Zymosan (2 mg/mL in saline, i.p., 0.5 mL, Sigma-Aldrich) was injected at 30 min (i.p.) or 60 min (p.o.) post compound administration. Mice were sacrificed by inhalation of CO2 after another 30 min to determine LTC4 levels, lipid mediator profiles, metabolites, and vascular permeability and after 4 h to analyze LTB4 levels and cell infiltration.[72] Plasma and peritoneal exudates were collected, and cells were counted in exudates after trypan blue staining. Vascular permeability was measured by injection of Evans blue dye (40 mg/kg in saline, 0.3 mL, Sigma-Aldrich) into the tail vain directly before peritonitis induction.[72] The exudate was centrifuged (3000g, 5 min), and the absorbance was measured at 610 nm (DU730 spectrophotometer, Beckman Coulter, Krefeld, Germany). Levels of LTB4 and cysteinyl-LTs (dominated by LTC4) were quantified in the exudate by ELISA (Enzo Life Sciences, Lörrach, Germany) according to the manufacturer’s instructions. Compound 27a, its metabolites, and lipid mediators were extracted and analyzed by UPLC-MS/MS.

| remaining activity at 3 µM (5-LOX [2]) | remaining activity at 1 µM (5-LOX [5]) | SMILES | Cytokine-induced responses in RHE [1] | IC50 (5-LOX [3]) | IC50 (5-LOX [4]) | Scavenging of DPPH radicals [6] | Cysteinyl-LTs in the exudate [7] |
| --- | --- | --- | --- | --- | --- | --- | --- |
| – | – | C[C@@H]1C[C@H]2[C@@H]3CCC4=CC(=O)C=C[C@]4(C)[C@@]3(F)[C@@H](O)C[C@]2(C)[C@@]1(O)C(=O)CO [Dexamethasone, reference compound] | suppressed these cytokine-induced responses | – | – | – | – |
| 78.5 ± 13.6% | 47 ± 4.5% | Cc1c(O)cc2c(c1C)O[C@](C)(CCC[C@H](C)CCC[C@H](C)CCCC(C)C)CC2 [Compound 1c] | – | > 3 µM | 0.91 ± 0.15 µM | – | – |
| 74.9 ± 8% | 6.7 ± 3.1% | CC(C)=CCC/C(C)=C/CC/C(C)=C/CC[C@]1(C)CCc2cc(O)cc(C)c2O1 [Compound 6d, δ-tocotrienol] | – | > 3 µM | 0.17 ± 0.1 µM | – | – |
| 2 ± 0.2% | 0.3 ± 0.2% | C/C(=C/CC/C(C)=C/CC/C(C)=C/CC[C@]1(C)CCc2cc(O)cc(C)c2O1)CO [Compound 10e, δ-(Z)-deoxyamplexichromanol] | – | 0.22 ± 0.04 µM | 0.14 ± 0.03 µM | – | – |
| 7.7 ± 1.3% | 0.2 ± 0.1% | C/C(=C\CC/C(C)=C/CC/C(C)=C/CC[C@]1(C)CCc2c(C)c(O)cc(C)c2O1)CO [Compound 10b] | – | 0.38 ± 0.09 µM | 0.09 ± 0.03 µM | – | – |
| 13.2 ± 2% | 0.2 ± 0.1% | C/C(=C\CC/C(C)=C/CC/C(C)=C/CC[C@]1(C)CCc2c(C)c(O)c(C)c(C)c2O1)CO [Compound 10a] | – | 0.27 ± 0.1 µM | 0.11 ± 0.01 µM | – | – |
| – | – | O=C1O[C@H]([C@@H](O)CO)C(O)=C1O [ascorbic acid, reference compound] | – | – | – | 36 ± 11% | – |
| 1.1 ± 1.1% | 0% | C/C(=C/CC/C(C)=C/CC/C(C)=C/CC[C@]1(C)CCc2cc(O)c(C)c(C)c2O1)CO [Compound 10d] | – | 0.14 ± 0.02 µM | 0.12 ± 0.03 µM | – | – |
| 79.6 ± 6.1% | 32.8 ± 9% | Cc1cc(O)c(C)c2c1O[C@](C)(CCC[C@H](C)CCC[C@H](C)CCCC(C)C)CC2 [Compound 1b] | – | > 3 µM | 0.75 ± 0.15 µM | – | – |
| 22.6 ± 2.4% | 2.1 ± 0.3% | Cc1cc(O)cc2c1O[C@](C)(CCCC(C)CCCC(C)CCCC(C)CO)CC2 (stereo partly drawn) [Compound 9b] | – | 0.54 ± 0.18 µM | 0.12 ± 0.04 µM | – | – |
| – | – | CC(c1cc2ccccc2s1)N(O)C(N)=O (stereo not drawn) [zileuton, reference compound] | – | – | – | – | did not evoke a stronger effect |
| 21.6 ± 2.5% | 1.5 ± 0.4% | Cc1c(C)c2c(c(C)c1O)CC[C@@](C)(CCCC(C)CCCC(C)CCCC(C)CO)O2 (stereo partly drawn) [Compound 9a, α-T-13′-CH2OH] | – | 0.19 ± 0.05 µM | 0.35 ± 0.04 µM | – | – |
| 41.4 ± 8% | 6.4 ± 3.2% | CC(C)=CCC/C(C)=C/CC/C(C)=C/CC[C@]1(C)CCc2c(C)c(O)cc(C)c2O1 [Compound 6b] | – | 2.11 ± 0.36 µM | 0.19 ± 0.03 µM | – | – |
| 88.6 ± 10.5% | 86.1 ± 8.3% | Cc1c(C)c2c(c(C)c1O)CC[C@@](C)(CCC[C@H](C)CCC[C@H](C)CCCC(C)C)O2 [Compound 1a, α-tocopherol] | – | > 3 µM | > 1 µM | – | – |

| SMILES | remaining activity at 3 µM (5-LOX [2]) | remaining activity at 1 µM (5-LOX [5]) | Cytokine-induced responses in RHE [1] | IC50 (5-LOX [3]) | IC50 (5-LOX [4]) | Scavenging of DPPH radicals [6] | Cysteinyl-LTs in the exudate [7] |
| --- | --- | --- | --- | --- | --- | --- | --- |
| CC(C)=CCC/C(C)=C/CC/C(C)=C/CC[C@]1(C)CCc2cc(O)c(C)c(C)c2O1 [Compound 6c] | 73.5 ± 1.2% | 6.4 ± 3.2% | – | > 3 µM | 0.2 ± 0.06 µM | – | – |
